Experimental data as given in patent US7906300B2, “Methods for diagnosing an attention-deficit/Hyperactivity disorder” (PsychNostics, LLC, priority 2005, dated 2011).

Columns and labels:
Assay type in all cases: cell-based, human
lymphoblasts [1] = test: Membrane potential of lymphoblasts by DiOC6(3) fluorescence intensity ratio, with/without compound
Source text: Three groups of immortalized lymphoblast samples were obtained from the Human Genetic Mutant Cell Repository (Coriell Institute for Medical Research, Camden N.J.). The samples are shown in Table 4 below and included six from affected (bipolar I disorder) patients (A1 through A6), six from their siblings (S1 through S6), and six from unrelated normal control subjects matched by age and sex (N1 through N6).
(§1) The membrane potentials of the bipolar I cells shown in Table 4 above (as well as in all other experiments, except where indicated) were measured using the following protocol. The cells cultured in the media described above were centrifuged at 210 g for 5 minutes at room temperature, then suspended in 3 ml of K^+-containing stock buffer (5 mM KCl, 4 mM NaHCO3, 5 mM HEPES, 134 mM NaCl, 2.3 mM CaCl2, and 5 mM glucose). The cells were counted and the desired number of cells were again suspended in the K^+-containing buffer. The membrane potentials were measured using 3,3′-dihexyloxacarbocyanine iodide DiOC6(3), a cell-permeant, voltage sensitive, green-fluorescent dye (Molecular Probes Inc. Eugene, Oreg. USA). […]
(§2) A fluorescence spectrometer (F2500 Hitachi, Japan) was used for the measurement of the membrane potential by measuring the fluorescence intensity of DiOC6(3), which is directly proportional to the membrane potential. The intensity of fluorescence was measured at an excitation wavelength of 488 nm and an output wavelength of 540 nm. […]
Membrane potential was expressed according to fluorescence intensity using the following equation: I=CV, wherein I is the fluorescence intensity of a lipophilic fluorescent dye DiOC6(3) being only one example of such a dye); V is the voltage or membrane potential; and C is a constant that can vary depending on a number of factors such as, but not limited to, temperature, lamp intensity, number of cells, concentration of the fluorescent dye, incubation time, and lipid composition of cells used. […]
Membrane potentials were also measured in K^+-free buffer to enable comparison with membrane potentials in K^+-containing buffer. […]

whole blood cells [2] = test: Membrane potential ratio of whole blood cells, clinical trials (DiOC6(3) fluorescence); details: open trial; bipolar patients; 100 mM sorbitol; FIG. 13
lymphoblasts [3] = test: Rate of drop in membrane potential (repolarization rate) of lymphoblasts, with/without compound; details: 30 min, K+-free and K+-containing buffer
Method: as §1, §2
The rate of drop in membrane potential after incubation with the protein kinase C (PKC) activator, phorbol 12-myristate 13-acetate (PMA), was compared in affected cells to that of unaffected cells. The membrane potential of these cells was determined by measuring the fluorescence intensity as described above. […]

whole blood cells [4] = test: Membrane potential ratio of whole blood cells, clinical trials (DiOC6(3) fluorescence); details: for ratio of intensity in K+-free buffer with 30 μM ethacrynate to intensity in K+-containing buffer without ethacrynate, Median: plate reader
Method: Because the volume of blood required to collect enough lymphocytes was beyond that permitted by the current protocol, the membrane potential of whole blood cells was determined. The volume of whole blood required was approximately 1 ml. The blood samples were kept on ice until they were stored at 4° C. All of the samples were tested within 48 hours.
Whole blood samples drawn from patients and controls were suspended in K^+-containing buffer without ethacrynate and in K^+-free buffer with 30 μM ethacrynate or with 100 mM sorbitol. The fluorescent dye DiOC6(3) was added to both suspensions and incubated for 30 minutes. The cell suspensions loaded with the dye were centrifuged, drained and resuspended in the respective buffers. The fluorescence intensity was measured for 10 seconds and the ratio of the intensity in K^+-free buffer to the intensity in K^+-containing buffer was calculated.
Whole blood samples drawn from patients and controls were suspended both in K^+-containing buffer and in K^+-free buffer with 30 μM ethacrynate or with 100 μM sorbitol. The fluorescent dye DiOC6(3) was added to both suspensions and incubated for 30 minutes. The cell suspensions loaded with the dye were centrifuged, drained and resuspended in the respective buffers. The fluorescence intensity was measured for 10 seconds and the ratio of the intensity in K^+-free buffer to the intensity in K^+-containing buffer was calculated.
An individual patient's cell sample was tested as described herein and six to twelve ratios were calculated. These values were treated as a group and compared with a normal control group (negative control) and a bipolar group (positive control).
(§3) Cells from control, bipolar I and bipolar II individuals were compared amongst each other as described herein. Whole blood samples drawn from patients and controls and aliquots were suspended either in K^+-containing buffer without ethacrynate, or in K^+-free buffer with 30 μM ethacrynate. The fluorescent dye DiOC6(3) was added to the suspensions and incubated for 30 minutes. The cell suspensions loaded with the dye were centrifuged, drained and resuspended in the respective buffers. The fluorescence intensity was measured for 10 seconds and the ratio of the intensity in K^+-free buffer to the intensity in K^+-containing buffer was calculated. Plate Reader (PerkinsElmer Victor V) was used for intensity measurements).
as §3, with “ADHD” for “bipolar II”

Structure (SMILES): CC[C@@]1([C@@H]2O[C@@H]([C@H]3O[C@@](O)(CO)[C@H](C)C[C@@H]3C)C[C@@H]2C)CC[C@H]([C@]2(C)CC[C@]3(C[C@H](O)[C@@H](C)[C@@H]([C@@H](C)[C@@H](OC)[C@H](C)C(=O)O)O3)O2)O1 [monensin]
- intensity ratio (membrane potential with monensin/without monensin) of affected cells compared with unaffected cells (lymphoblasts [1]; K+-free buffer, 10 μM monensin, 30 min, t-test P=0.009, FIG. 8): significantly lower

Structure (SMILES): OC[C@@H](O)[C@@H](O)[C@H](O)[C@@H](O)CO [sorbitol]
- fluorescence intensity ratio of bipolar cells with sorbitol in K+-free buffer, compared with ethacrynate (whole blood cells [2]): comparable to the results with ethacrynate

Structure (SMILES): CCCCCCCCCCCCCC(=O)O[C@@H]1[C@@H](C)[C@@]2(O)[C@@H](C=C(CO)C[C@]3(O)C(=O)C(C)=C[C@@H]23)[C@@H]2C(C)(C)[C@]12OC(C)=O [PMA, phorbol 12-myristate 13-acetate]
- relative ratio of repolarization rates in affected cells compared with unaffected cells (lymphoblasts [3]; 2 μM PMA, P=0.046, FIG. 10): significantly lower

Structure (SMILES): C=C(CC)C(=O)c1ccc(OCC(=O)O)c(Cl)c1Cl [ethacrynate]
- ratio of fluorescence intensity in K+-free buffer containing 30 μM ethacrynate to that in K+-containing buffer without ethacrynate, Mean (whole blood cells [4]; blind clinical trial, Controls): 0.850
- ratio of fluorescence intensity in K+-free buffer containing 30 μM ethacrynate to that in K+-containing buffer without ethacrynate, Median (whole blood cells [4]; blind clinical trial, Controls): 0.850
- ratio of fluorescence intensity in K+-free buffer containing 30 μM ethacrynate to that in K+-containing buffer without ethacrynate, Mean (whole blood cells [4]; blind clinical trial, Schizophr.): 0.870
- ratio of fluorescence intensity in K+-free buffer containing 30 μM ethacrynate to that in K+-containing buffer without ethacrynate, Mean (whole blood cells [4]; individual Patient A (diagnosed bipolar)): 0.766
- ratio of fluorescence intensity in K+-free buffer containing 30 μM ethacrynate to that in K+-containing buffer without ethacrynate, Mean (whole blood cells [4]; open clinical trial, Bipolars): 0.780
- ratio of intensity in K+-free buffer with 30 μM ethacrynate to intensity in K+-containing buffer without ethacrynate, Median (whole blood cells [4]; ADHD group): 0.808
- ratio of intensity in K+-free buffer with 30 μM ethacrynate to intensity in K+-containing buffer without ethacrynate, Median (whole blood cells [4]; BPD I group): 0.606
- ratio of intensity in K+-free buffer with 30 μM ethacrynate to intensity in K+-containing buffer without ethacrynate, Median (whole blood cells [4]; BPD II group): 0.648
- ratio of intensity in K+-free buffer with 30 μM ethacrynate to intensity in K+-containing buffer without ethacrynate, Median (whole blood cells [4]; Negative (control) group): 0.676
- relative intensity ratio of affected cells compared with unaffected cells (lymphoblasts [1]; 30 μM ethacrynate, K+-free vs K+-containing buffer, t-test P=0.009, FIG. 5): significantly higher
- intensity ratio (membrane potential with ethacrynate/without ethacrynate) of affected cells compared with unaffected cells (lymphoblasts [1]; K+-free buffer, 30 μM ethacrynate, t-test P=0.032, FIG. 6): significantly higher
- relative rate of repolarization in affected cells compared with unaffected cells (lymphoblasts [3]; 30 μM ethacrynate, P=0.041, FIG. 7): significantly higher
